According to the NIST ThermoML archive (doi:10.1016/j.jct.2015.12.027):
± gives the expanded uncertainty stated by the source.

Columns and labels:
[1] = refractive index (Na D-line) (dimensionless); xn = mol fraction of the nth substance listed; details: 81.5 kPa, Liquid, Standard Abbe refractometry
[2] = xn = mol fraction of the nth substance listed; details: 81.5 kPa, Liquid, Vibrating tube method

Brc1ccccc1 [bromobenzene] + ClCCCl
Details | mass density, 293.15 K [kg/m3] | mass density, 303.15 K [kg/m3] | mass density, 313.15 K [kg/m3] | mass density, 323.15 K [kg/m3] | mass density, 333.15 K [kg/m3] | refractive index, 293.15 K | refractive index, 303.15 K | refractive index, 313.15 K | refractive index, 323.15 K | refractive index, 333.15 K
[1], x2 = 0 | – | – | – | – | – | 1.55981 ± 0.01 | 1.55442 ± 0.01 | 1.5489 ± 0.01 | 1.54319 ± 0.01 | 1.53742 ± 0.01
[1], x2 = 0.1031 | – | – | – | – | – | 1.55145 ± 0.01 | 1.5466 ± 0.01 | 1.54165 ± 0.01 | 1.53652 ± 0.01 | 1.53135 ± 0.01
[1], x2 = 0.2005 | – | – | – | – | – | 1.54415 ± 0.01 | 1.53939 ± 0.01 | 1.53455 ± 0.01 | 1.52957 ± 0.01 | 1.52458 ± 0.01
[1], x2 = 0.3001 | – | – | – | – | – | 1.53597 ± 0.01 | 1.53114 ± 0.01 | 1.52627 ± 0.01 | 1.5213 ± 0.01 | 1.51632 ± 0.01
[1], x2 = 0.3997 | – | – | – | – | – | 1.5262 ± 0.01 | 1.52135 ± 0.01 | 1.51645 ± 0.01 | 1.51147 ± 0.01 | 1.5065 ± 0.01
[1], x2 = 0.4996 | – | – | – | – | – | 1.51453 ± 0.01 | 1.50972 ± 0.01 | 1.50487 ± 0.01 | 1.49994 ± 0.01 | 1.49501 ± 0.01
[1], x2 = 0.6001 | – | – | – | – | – | 1.50149 ± 0.01 | 1.49679 ± 0.01 | 1.49202 ± 0.01 | 1.48719 ± 0.01 | 1.48235 ± 0.01
[1], x2 = 0.6993 | – | – | – | – | – | 1.48764 ± 0.01 | 1.48301 ± 0.01 | 1.47833 ± 0.01 | 1.47357 ± 0.01 | 1.46881 ± 0.01
[1], x2 = 0.7993 | – | – | – | – | – | 1.47349 ± 0.01 | 1.46883 ± 0.01 | 1.46414 ± 0.01 | 1.45938 ± 0.01 | 1.45461 ± 0.01
[1], x2 = 0.8986 | – | – | – | – | – | 1.45961 ± 0.01 | 1.45476 ± 0.01 | 1.44989 ± 0.01 | 1.44499 ± 0.01 | 1.44008 ± 0.01
[2], x2 = 0 | 1495.52 ± 10 | 1481.97 ± 10 | 1468.41 ± 10 | 1454.85 ± 10 | 1441.22 ± 10 | – | – | – | – | –
[2], x2 = 0.1031 | 1475.66 ± 10 | 1461.99 ± 10 | 1448.3 ± 10 | 1434.54 ± 10 | 1420.74 ± 10 | – | – | – | – | –
[2], x2 = 0.2005 | 1455.9 ± 10 | 1442.07 ± 10 | 1428.17 ± 10 | 1414.26 ± 10 | 1400.29 ± 10 | – | – | – | – | –
[2], x2 = 0.3001 | 1434.62 ± 10 | 1420.64 ± 10 | 1406.6 ± 10 | 1392.5 ± 10 | 1378.34 ± 10 | – | – | – | – | –
[2], x2 = 0.3997 | 1412.26 ± 10 | 1398.16 ± 10 | 1383.98 ± 10 | 1369.73 ± 10 | 1355.39 ± 10 | – | – | – | – | –
[2], x2 = 0.4996 | 1388.86 ± 10 | 1374.68 ± 10 | 1360.39 ± 10 | 1345.98 ± 10 | 1331.47 ± 10 | – | – | – | – | –
[2], x2 = 0.6001 | 1364.37 ± 10 | 1350.09 ± 10 | 1335.69 ± 10 | 1321.15 ± 10 | 1306.48 ± 10 | – | – | – | – | –
[2], x2 = 0.6993 | 1339.1 ± 10 | 1324.73 ± 10 | 1310.2 ± 10 | 1295.56 ± 10 | 1280.77 ± 10 | – | – | – | – | –
[2], x2 = 0.7993 | 1312.25 ± 10 | 1297.77 ± 10 | 1283.16 ± 10 | 1268.43 ± 10 | 1253.56 ± 10 | – | – | – | – | –
[2], x2 = 0.8986 | 1283.81 ± 10 | 1269.28 ± 10 | 1254.59 ± 10 | 1239.77 ± 10 | 1224.87 ± 10 | – | – | – | – | –

O=[N+]([O-])c1ccccc1 [nitrobenzene] + ClCCCl
Details | mass density, 293.15 K [kg/m3] | mass density, 303.15 K [kg/m3] | mass density, 313.15 K [kg/m3] | mass density, 323.15 K [kg/m3] | mass density, 333.15 K [kg/m3] | refractive index, 293.15 K | refractive index, 303.15 K | refractive index, 313.15 K | refractive index, 323.15 K | refractive index, 333.15 K
[1], x2 = 0 | – | – | – | – | – | 1.55241 ± 0.01 | 1.54763 ± 0.01 | 1.54288 ± 0.01 | 1.53795 ± 0.01 | 1.53289 ± 0.01
[1], x2 = 0.1008 | – | – | – | – | – | 1.54317 ± 0.01 | 1.53879 ± 0.01 | 1.53437 ± 0.01 | 1.52975 ± 0.01 | 1.52496 ± 0.01
[1], x2 = 0.1993 | – | – | – | – | – | 1.5343 ± 0.01 | 1.53004 ± 0.01 | 1.52579 ± 0.01 | 1.5214 ± 0.01 | 1.5169 ± 0.01
[1], x2 = 0.3 | – | – | – | – | – | 1.5252 ± 0.01 | 1.52093 ± 0.01 | 1.51672 ± 0.01 | 1.51243 ± 0.01 | 1.5081 ± 0.01
[1], x2 = 0.3997 | – | – | – | – | – | 1.51592 ± 0.01 | 1.51157 ± 0.01 | 1.5073 ± 0.01 | 1.50299 ± 0.01 | 1.49867 ± 0.01
[1], x2 = 0.4991 | – | – | – | – | – | 1.5061 ± 0.01 | 1.50165 ± 0.01 | 1.49727 ± 0.01 | 1.49286 ± 0.01 | 1.48847 ± 0.01
[1], x2 = 0.6004 | – | – | – | – | – | 1.49525 ± 0.01 | 1.49071 ± 0.01 | 1.48623 ± 0.01 | 1.48171 ± 0.01 | 1.4772 ± 0.01
[1], x2 = 0.7006 | – | – | – | – | – | 1.48353 ± 0.01 | 1.47893 ± 0.01 | 1.47436 ± 0.01 | 1.46977 ± 0.01 | 1.46518 ± 0.01
[1], x2 = 0.801 | – | – | – | – | – | 1.47088 ± 0.01 | 1.46619 ± 0.01 | 1.46154 ± 0.01 | 1.45687 ± 0.01 | 1.45224 ± 0.01
[1], x2 = 0.8997 | – | – | – | – | – | 1.45787 ± 0.01 | 1.453 ± 0.01 | 1.44817 ± 0.01 | 1.44337 ± 0.01 | 1.43861 ± 0.01
[2], x2 = 0 | 1203.05 ± 10 | 1193.15 ± 10 | 1183.21 ± 10 | 1173.27 ± 10 | 1163.32 ± 10 | – | – | – | – | –
[2], x2 = 0.1008 | 1206.99 ± 10 | 1196.83 ± 10 | 1186.61 ± 10 | 1176.36 ± 10 | 1166.07 ± 10 | – | – | – | – | –
[2], x2 = 0.1993 | 1211.04 ± 10 | 1200.58 ± 10 | 1190.03 ± 10 | 1179.45 ± 10 | 1168.82 ± 10 | – | – | – | – | –
[2], x2 = 0.3 | 1215.35 ± 10 | 1204.56 ± 10 | 1193.66 ± 10 | 1182.68 ± 10 | 1171.66 ± 10 | – | – | – | – | –
[2], x2 = 0.3997 | 1219.84 ± 10 | 1208.67 ± 10 | 1197.36 ± 10 | 1185.98 ± 10 | 1174.52 ± 10 | – | – | – | – | –
[2], x2 = 0.4991 | 1224.55 ± 10 | 1212.96 ± 10 | 1201.23 ± 10 | 1189.39 ± 10 | 1177.48 ± 10 | – | – | – | – | –
[2], x2 = 0.6004 | 1229.62 ± 10 | 1217.53 ± 10 | 1205.32 ± 10 | 1193 ± 10 | 1180.62 ± 10 | – | – | – | – | –
[2], x2 = 0.7006 | 1234.94 ± 10 | 1222.31 ± 10 | 1209.57 ± 10 | 1196.72 ± 10 | 1183.82 ± 10 | – | – | – | – | –
[2], x2 = 0.801 | 1240.51 ± 10 | 1227.39 ± 10 | 1214.06 ± 10 | 1200.58 ± 10 | 1187.03 ± 10 | – | – | – | – | –
[2], x2 = 0.8997 | 1246.65 ± 10 | 1232.66 ± 10 | 1218.68 ± 10 | 1204.5 ± 10 | 1190.22 ± 10 | – | – | – | – | –
